Two molecules from patent publication US9968536B2, “Composition comprising isosorbide monoesters and isosorbide diesters” (Clariant International Ltd., priority 2011, dated 2018) can be followed below.

This series in a line: Determination of the thickener performance in mixture A. The conditions noted are these: for Viscosity: 1% by weight added to mixture A (15% by weight in water, sodium laureth-2 sulfate:cocobetain 8:2), mixture A alone 135; for thickener performance (in words): 1% by weight in mixture A, summary of Table 1. It is filed as physicochemical. From the text: Using Genapol® LRO (sodium laureth-2 sulfate, 27% by weight in water) and Genagen® KB (cocobetain, 30% by weight in water) and additionally water, a 15% by weight mixture in water comprising the two surfactants in a weight ratio of 8:2 (hereinbelow referred to as “mixture A”) is obtained.

On to `O[C@@H]1CO[C@H]2[C@@H]1OC[C@@H]2O` [isosorbide], for which the Viscosity came to 160 mPa · s and the “thickener performance (in words)” value was “not worth mentioning”.

In the case of isosorbide dicaprylate, the Viscosity is 2390 mPa · s and the “thickener performance (in words)” value is “significant thickening”.
